According to patent publication US20220242846A1, “ISOINDOLINONE COMPOUNDS” (Monte Rosa Therapeutics AG, priority 2019, published 2022):
Read-outs that look alike come from different tables or passages of the source.

System: Human mammary epithelial cells (HMEC) engineered to express c-myc tagged with EGFP
Test: 3D spheroid assay, myc-HMEC (CellTiterGlo3D viability)
Type: cell-based

Compound: Cc1ccc(NC(=O)NCc2ccc3c(c2)C(=O)N(C2CCC(=O)NC2=O)C3)cc1Cl (centres unmarked) [Compound 8]
- EC50 (Homo sapiens, HMEC, 120 h, 3D spheroids, 5 days with compound, read-out: Code: EC50 value in the myc-HMEC assay): ≤ 400 nM
- EC50 (myc-HMEC 3D spheroids (compounds with code D and E), 5 days, read-out: EC50): 220 nM
